For one series, the system named is A375 cells. In words: A375 cell proliferation assay (trypan blue exclusion). In kind it is cell-based. Particulars: Homo sapiens, A-375; A375, 1 μM, 48 h, treated/untreated cell number; read-out: Proliferation (%) At 1 μM - 48 H. The protocol: Cells were counted using a Malassez chamber. The average and standard deviation were calculated from triplicate experiments. Antiproliferative effects were evaluated by trypan blue exclusion assay. Briefly, cells were seeded into 12-well plate and grown in media supplemented with indicated compound at 1 or 10 μM for 48 h or 96 h. Cells were washed with PBS and detached by trypsinization, collected and colored by trypan blue. Dead and living cells were counted and proliferation was calculated as follow: Proliferation (%)=[(treated cell number/untreated cells number)*100].
For `COCCOc1cc(Nc2ccnc3cc(Cl)ccc23)ccc1OC` [Compound 35, 7-chloro-N-(4-methoxy-3-(2-methoxyethoxy)phenyl)quinolin-4-amine], the activity at 1 µM is 104%.
Turning to `COc1ccc(Nc2cc(OC)nc3cc(Cl)ccc23)cc1` [Compound 27, 7-chloro-2-methoxy-N-(4-methoxyphenyl)quinolin-4-amine], the activity at 1 µM turned out to be 98.7%.
The same measure, in the same setting: as for `FC(F)Oc1ccc(Nc2ccnc3cc(Cl)ccc23)cc1` [Compound 34, 7-chloro-N-(4-(difluoromethoxy)phenyl)quinolin-4-amine], the figure is 96%; as for `COc1ccc(Nc2cc(N3CCOCC3)nc3cc(Cl)ccc23)cc1` [Compound 30, 7-chloro-N-(4-methoxyphenyl)-2-morpholinoquinolin-4-amine], 88%; as for `Oc1ccc(Nc2ccnc3cc(Cl)ccc23)cc1Cl` [Compound 8, 4-((4-hydroxy-3-chlorophenyl)amino)-7-chloroquinolinium chloride], 81.3%.
On the same count and under the same terms, as for `COc1ccc(Nc2ccnc3cc(Cl)ccc23)cc1OC` [Compound 38, 7-chloro-N-(3,4-dimethoxyphenyl)quinolin-4-amine], the figure is 90.8%; as for `Oc1ccc(Nc2ccc3c(Nc4cc(F)cc(F)c4)ccnc3c2)cc1Cl` [Compound 19, 2-chloro-4-((4-((3,5-difluorophenyl)amino)quinolin-7-yl)amino)phenol], 74.7%.
The same measure, in the same setting: as for `Oc1ccc(Nc2ccnc3cc(Cl)ccc23)cc1` [Compound 7, 4-((4-hydroxyphenyl)amino)-7-chloroquinolinium chloride], the figure is 84.6%.
For `COc1ccc(Nc2cc(N3CCOCC3)nc3cc(Cl)ccc23)cc1OC` [Compound 28, 7-chloro-N-(3,4-dimethoxyphenyl)-2-morpholinoquinolin-4-amine], the activity at 1 µM amounted to 98.4%.
On the same count and under the same terms, as for `COc1ccc(Nc2ccnc3ccc(Cl)cc23)c(OC)c1` [Compound 37, 6-chloro-N-(2,4-dimethoxyphenyl)quinolin-4-amine], the figure is 84%.

The same series, now with this note: Homo sapiens, A-375; A375, 1 μM, 96 h, treated/untreated cell number; read-out: Proliferation (%) At 1 μM - 96 H.
As to `COCCOc1cc(Nc2ccnc3cc(Cl)ccc23)ccc1OC` [Compound 35, 7-chloro-N-(4-methoxy-3-(2-methoxyethoxy)phenyl)quinolin-4-amine], the activity at 1 µM came out at 85.3%.
On to `COc1ccc(Nc2cc(OC)nc3cc(Cl)ccc23)cc1` [Compound 27, 7-chloro-2-methoxy-N-(4-methoxyphenyl)quinolin-4-amine], for which the activity at 1 µM is 85.6%.
On the same count and under the same terms, as for `FC(F)Oc1ccc(Nc2ccnc3cc(Cl)ccc23)cc1` [Compound 34, 7-chloro-N-(4-(difluoromethoxy)phenyl)quinolin-4-amine], the figure is 98.6%.
Consider `COc1ccc(Nc2cc(N3CCOCC3)nc3cc(Cl)ccc23)cc1` [Compound 30, 7-chloro-N-(4-methoxyphenyl)-2-morpholinoquinolin-4-amine], for which the activity at 1 µM was 73.2%.
Consider `Oc1ccc(Nc2ccnc3cc(Cl)ccc23)cc1Cl` [Compound 8, 4-((4-hydroxy-3-chlorophenyl)amino)-7-chloroquinolinium chloride], for which the activity at 1 µM turned out to be 74%.
Still for that read-out and setting: as for `COc1ccc(Nc2ccnc3cc(Cl)ccc23)cc1OC` [Compound 38, 7-chloro-N-(3,4-dimethoxyphenyl)quinolin-4-amine], the figure is 46.9%.
Consider `Oc1ccc(Nc2ccc3c(Nc4cc(F)cc(F)c4)ccnc3c2)cc1Cl` [Compound 19, 2-chloro-4-((4-((3,5-difluorophenyl)amino)quinolin-7-yl)amino)phenol], for which the activity at 1 µM was 74.9%.
Same read-out and setting: as for `Oc1ccc(Nc2ccnc3cc(Cl)ccc23)cc1` [Compound 7, 4-((4-hydroxyphenyl)amino)-7-chloroquinolinium chloride], the figure is 91.1%; as for `COc1ccc(Nc2cc(N3CCOCC3)nc3cc(Cl)ccc23)cc1OC` [Compound 28, 7-chloro-N-(3,4-dimethoxyphenyl)-2-morpholinoquinolin-4-amine], 87.8%; as for `COc1ccc(Nc2ccnc3ccc(Cl)cc23)c(OC)c1` [Compound 37, 6-chloro-N-(2,4-dimethoxyphenyl)quinolin-4-amine], 87.4%.

The same series, now with this note: Homo sapiens, A-375; A375, 10 μM, 48 h, treated/untreated cell number; read-out: Proliferation (%) At 10 μM - 48 H.
For `COCCOc1cc(Nc2ccnc3cc(Cl)ccc23)ccc1OC` [Compound 35, 7-chloro-N-(4-methoxy-3-(2-methoxyethoxy)phenyl)quinolin-4-amine], the activity at 10 µM came out at 84.7%.
In the case of `COc1ccc(Nc2cc(OC)nc3cc(Cl)ccc23)cc1` [Compound 27, 7-chloro-2-methoxy-N-(4-methoxyphenyl)quinolin-4-amine], the activity at 10 µM is 67.8%.
Turning to `FC(F)Oc1ccc(Nc2ccnc3cc(Cl)ccc23)cc1` [Compound 34, 7-chloro-N-(4-(difluoromethoxy)phenyl)quinolin-4-amine], the activity at 10 µM amounted to 77.6%.
Same read-out and setting: as for `COc1ccc(Nc2cc(N3CCOCC3)nc3cc(Cl)ccc23)cc1` [Compound 30, 7-chloro-N-(4-methoxyphenyl)-2-morpholinoquinolin-4-amine], the figure is 87.2%; as for `Oc1ccc(Nc2ccnc3cc(Cl)ccc23)cc1Cl` [Compound 8, 4-((4-hydroxy-3-chlorophenyl)amino)-7-chloroquinolinium chloride], 82.1%; as for `COc1ccc(Nc2ccnc3cc(Cl)ccc23)cc1OC` [Compound 38, 7-chloro-N-(3,4-dimethoxyphenyl)quinolin-4-amine], 33.5%.
With `Oc1ccc(Nc2ccc3c(Nc4cc(F)cc(F)c4)ccnc3c2)cc1Cl` [Compound 19, 2-chloro-4-((4-((3,5-difluorophenyl)amino)quinolin-7-yl)amino)phenol], the activity at 10 µM is 0.4%.
On to `Oc1ccc(Nc2ccnc3cc(Cl)ccc23)cc1` [Compound 7, 4-((4-hydroxyphenyl)amino)-7-chloroquinolinium chloride], for which the activity at 10 µM was 95.2%.
Still for that read-out and setting: as for `COc1ccc(Nc2cc(N3CCOCC3)nc3cc(Cl)ccc23)cc1OC` [Compound 28, 7-chloro-N-(3,4-dimethoxyphenyl)-2-morpholinoquinolin-4-amine], the figure is 92%; as for `COc1ccc(Nc2ccnc3ccc(Cl)cc23)c(OC)c1` [Compound 37, 6-chloro-N-(2,4-dimethoxyphenyl)quinolin-4-amine], 80.5%.

Still in this series, the particulars now being: Homo sapiens, A-375; A375, 10 μM, 96 h, treated/untreated cell number; read-out: Proliferation (%) At 10 μM - 96 H.
Turning to `COCCOc1cc(Nc2ccnc3cc(Cl)ccc23)ccc1OC` [Compound 35, 7-chloro-N-(4-methoxy-3-(2-methoxyethoxy)phenyl)quinolin-4-amine], the activity at 10 µM was 79.9%.
Still for that read-out and setting: as for `COc1ccc(Nc2cc(OC)nc3cc(Cl)ccc23)cc1` [Compound 27, 7-chloro-2-methoxy-N-(4-methoxyphenyl)quinolin-4-amine], the figure is 21.8%.
For the compound `FC(F)Oc1ccc(Nc2ccnc3cc(Cl)ccc23)cc1` [Compound 34, 7-chloro-N-(4-(difluoromethoxy)phenyl)quinolin-4-amine], the activity at 10 µM was determined as 37.9%.
Same read-out and setting: as for `COc1ccc(Nc2cc(N3CCOCC3)nc3cc(Cl)ccc23)cc1` [Compound 30, 7-chloro-N-(4-methoxyphenyl)-2-morpholinoquinolin-4-amine], the figure is 37%; as for `Oc1ccc(Nc2ccnc3cc(Cl)ccc23)cc1Cl` [Compound 8, 4-((4-hydroxy-3-chlorophenyl)amino)-7-chloroquinolinium chloride], 67.5%.
Turning to `COc1ccc(Nc2ccnc3cc(Cl)ccc23)cc1OC` [Compound 38, 7-chloro-N-(3,4-dimethoxyphenyl)quinolin-4-amine], the activity at 10 µM was determined as 15.7%.
Same read-out and setting: as for `Oc1ccc(Nc2ccc3c(Nc4cc(F)cc(F)c4)ccnc3c2)cc1Cl` [Compound 19, 2-chloro-4-((4-((3,5-difluorophenyl)amino)quinolin-7-yl)amino)phenol], the figure is 0%; as for `Oc1ccc(Nc2ccnc3cc(Cl)ccc23)cc1` [Compound 7, 4-((4-hydroxyphenyl)amino)-7-chloroquinolinium chloride], 79.4%.
The same measure, in the same setting: as for `COc1ccc(Nc2cc(N3CCOCC3)nc3cc(Cl)ccc23)cc1OC` [Compound 28, 7-chloro-N-(3,4-dimethoxyphenyl)-2-morpholinoquinolin-4-amine], the figure is 82.8%; as for `COc1ccc(Nc2ccnc3ccc(Cl)cc23)c(OC)c1` [Compound 37, 6-chloro-N-(2,4-dimethoxyphenyl)quinolin-4-amine], 53%.

For another series, the system named is normal human melanocyte. Kind of series: Melanocyte viability assay (trypan blue exclusion). In kind it is cell-based. Particulars: 96 h. The protocol: (§1) Cell viability effects were evaluated by trypan blue exclusion assay. Briefly, cells were seeded into 12-well plate and grown in media supplemented with indicated compound at 10 μM for 96 h. Cells were washed with PBS and detached by trypsinization, collected and colored by trypan blue. Dead and living cells were counted and cell viability was calculated as follow: Viability (%)=100−[(dead cell number/total cells)*100].
Regarding `COCCOc1cc(Nc2ccnc3cc(Cl)ccc23)ccc1OC` [Compound 35, 7-chloro-N-(4-methoxy-3-(2-methoxyethoxy)phenyl)quinolin-4-amine], the “Viability (%) at 10 μM Melanocyte” value stood at 99.1%.
The same measure, in the same setting: as for `COc1ccc(Nc2cc(OC)nc3cc(Cl)ccc23)cc1` [Compound 27, 7-chloro-2-methoxy-N-(4-methoxyphenyl)quinolin-4-amine], the figure is 76.9%.
Consider `FC(F)Oc1ccc(Nc2ccnc3cc(Cl)ccc23)cc1` [Compound 34, 7-chloro-N-(4-(difluoromethoxy)phenyl)quinolin-4-amine], for which the “Viability (%) at 10 μM Melanocyte” value came to 98.7%.
Still for that read-out and setting: as for `COc1ccc(Nc2cc(N3CCOCC3)nc3cc(Cl)ccc23)cc1` [Compound 30, 7-chloro-N-(4-methoxyphenyl)-2-morpholinoquinolin-4-amine], the figure is 94.2%.
On the same count and under the same terms, as for `Oc1ccc(Nc2ccnc3cc(Cl)ccc23)cc1Cl` [Compound 8, 4-((4-hydroxy-3-chlorophenyl)amino)-7-chloroquinolinium chloride], the figure is 98.0%.
The same measure, in the same setting: as for `COc1ccc(Nc2ccnc3cc(Cl)ccc23)cc1OC` [Compound 38, 7-chloro-N-(3,4-dimethoxyphenyl)quinolin-4-amine], the figure is 99.2%.
For `Oc1ccc(Nc2ccnc3cc(Cl)ccc23)cc1` [Compound 7, 4-((4-hydroxyphenyl)amino)-7-chloroquinolinium chloride], the “Viability (%) at 10 μM Melanocyte” value is on record as 99.1%.
For the compound `COc1ccc(Nc2cc(N3CCOCC3)nc3cc(Cl)ccc23)cc1OC` [Compound 28, 7-chloro-N-(3,4-dimethoxyphenyl)-2-morpholinoquinolin-4-amine], the “Viability (%) at 10 μM Melanocyte” value stood at 99.1%.
For `COc1ccc(Nc2ccnc3ccc(Cl)cc23)c(OC)c1` [Compound 37, 6-chloro-N-(2,4-dimethoxyphenyl)quinolin-4-amine], the “Viability (%) at 10 μM Melanocyte” value was found to be 98.7%.

The next series relates to EZH2 transcription. Kind of series: Ability to decrease EZH2 mRNA level in A375 (dose-response, quantitative PCR). In kind it is cell-based. The conditions noted are these: Homo sapiens, A-375, 96 h; A375 cells, incubated 4 days; read-out: IC50 (concentration necessary to obtain 50% of EZH2 transcription activity). The protocol:
Typically, 30000-50000 cells were plated in six-well culture plates and incubated 24 h later with increasing concentration of NIK inhibitors or vehicle. Cells were incubated with the inhibitors for 4 days prior to harvesting for RNA extraction and PCR. Total RNA was isolated from cells using the RNAeasy minikit (Qiagen) according to the manufacturer's procedure. Reverse transcription was performed using the AMV reverse transcription system (Promega), and quantitative PCR was performed with Power Sybr green (Applied Biosystems, Life Technologies, Grand Island, N.Y.) following the manufacturer's instructions. The PCR was carried out on a Step One plus Real-Time PCR system (Applied Biosystems). All analyses were done in triplicate, and a melting curve analysis was performed to control for product quality and specificity. Expression levels were calculated using the comparative method of relative quantification, with SB34 as a normalizer. The data were analyzed for statistical significance using Student's t-test. The results are presented as the mean±SEM relative to the control. Primers were obtained from primer bank or primer depot (http://pga.mgh.harvard.edu/primerbank/, https://primerdepot.nci.nih.gov), and their specificity was verified using primer blast (http://www.ncbi.nlm.nih.gov/tools/primer-blast/).
Here IC50 represents the concentration necessary to obtain 50% of EZH2 transcription activity.
For the compound `Oc1ccc(Nc2ccnc3cc(Cl)ccc23)cc1Cl` [Compound 8, 4-((4-hydroxy-3-chlorophenyl)amino)-7-chloroquinolinium chloride], the IC50 is 15 µM.

For a further series, the system named is normal human fibroblast. In words: Fibroblast viability assay (trypan blue exclusion). It is filed as cell-based. Particulars: 96 h. The protocol: as §1
Regarding `COCCOc1cc(Nc2ccnc3cc(Cl)ccc23)ccc1OC` [Compound 35, 7-chloro-N-(4-methoxy-3-(2-methoxyethoxy)phenyl)quinolin-4-amine], the “Viability (%) at 10 μM Fibroblast” value is listed as 99.5%.
The same measure, in the same setting: as for `COc1ccc(Nc2cc(OC)nc3cc(Cl)ccc23)cc1` [Compound 27, 7-chloro-2-methoxy-N-(4-methoxyphenyl)quinolin-4-amine], the figure is 93.9%.
Still for that read-out and setting: as for `FC(F)Oc1ccc(Nc2ccnc3cc(Cl)ccc23)cc1` [Compound 34, 7-chloro-N-(4-(difluoromethoxy)phenyl)quinolin-4-amine], the figure is 98.3%; as for `COc1ccc(Nc2cc(N3CCOCC3)nc3cc(Cl)ccc23)cc1` [Compound 30, 7-chloro-N-(4-methoxyphenyl)-2-morpholinoquinolin-4-amine], 96.4%.
Take `Oc1ccc(Nc2ccnc3cc(Cl)ccc23)cc1Cl` [Compound 8, 4-((4-hydroxy-3-chlorophenyl)amino)-7-chloroquinolinium chloride]: the “Viability (%) at 10 μM Fibroblast” value is listed as 98.6%.
As to `COc1ccc(Nc2ccnc3cc(Cl)ccc23)cc1OC` [Compound 38, 7-chloro-N-(3,4-dimethoxyphenyl)quinolin-4-amine], the “Viability (%) at 10 μM Fibroblast” value was 93.3%.
For the compound `Oc1ccc(Nc2ccnc3cc(Cl)ccc23)cc1` [Compound 7, 4-((4-hydroxyphenyl)amino)-7-chloroquinolinium chloride], the “Viability (%) at 10 μM Fibroblast” value stood at 97.7%.
For the compound `COc1ccc(Nc2cc(N3CCOCC3)nc3cc(Cl)ccc23)cc1OC` [Compound 28, 7-chloro-N-(3,4-dimethoxyphenyl)-2-morpholinoquinolin-4-amine], the “Viability (%) at 10 μM Fibroblast” value turned out to be 95.7%.
Turning to `COc1ccc(Nc2ccnc3ccc(Cl)cc23)c(OC)c1` [Compound 37, 6-chloro-N-(2,4-dimethoxyphenyl)quinolin-4-amine], the “Viability (%) at 10 μM Fibroblast” value was 94.6%.

The values are drawn from patent US20200181089A1, “4-ANILINO-QUINOLINE COMPOUNDS AS ANTI-CANCER AGENTS” (INSERM (INSTITUT NATIONAL DE LA SANTÉ ET DE LA RECHERCHE …, priority 2016, published 2020).
